This passage reports Activity results from ChEMBL document CHEMBL1128694, “Specific inhibition of poly(ADP-ribose) glycohydrolase by adenosine diphosphate (hydroxymethyl)pyrrolidinediol” (J Med Chem, 1995).

Holding throughout (conditions): Meleagris gallopavo
In assay [1] the target is T1, ADP-ribosyltransferase (Homo sapiens) (UniProt P52961).
T1 sequence (whole entry): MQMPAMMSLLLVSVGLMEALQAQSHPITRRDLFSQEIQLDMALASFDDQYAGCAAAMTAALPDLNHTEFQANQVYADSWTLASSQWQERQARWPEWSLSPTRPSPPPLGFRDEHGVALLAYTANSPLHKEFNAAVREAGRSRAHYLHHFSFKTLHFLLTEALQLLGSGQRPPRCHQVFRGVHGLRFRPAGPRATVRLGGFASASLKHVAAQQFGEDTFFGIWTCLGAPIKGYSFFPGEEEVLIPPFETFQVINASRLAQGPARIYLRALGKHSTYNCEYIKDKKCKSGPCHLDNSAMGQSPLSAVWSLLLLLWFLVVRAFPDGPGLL
The assay can be described thus: Inhibition of ADP-ribosyltransferase 1 that catalyze ADP-ribosyltransferase was measured at 100 uM concentration.

Assay [2] deals with T1, ADP-ribosyltransferase (Homo sapiens). In words: Inhibition of ADP-ribosyltransferase 1 that catalyze ADP-ribosyltransferase was measured at 1000 uM concentration.
For assay [3] the target is unchanged. The assay can be described thus: Inhibition of ADP-ribosyltransferase 1 that catalyze ADP-ribosyltransferase was measured at 0 uM concentration.

On to `Nc1ncnc2c1ncn2[C@@H]1O[C@H](COP(=O)(O)OP(=O)(O)OC[C@H]2NC[C@H](O)[C@@H]2O)[C@@H](O)[C@H]1O`, for which the Activity in assay [1] came to 0.07 units/assay; in assay [2], 0.05 units/assay; in assay [3], 0.06 units/assay.
